pIC50: −log10 of the molar value. Like-named read-outs stand apart in the source and are kept apart here.
Molecular target: human recombinant GPR65 (Homo sapiens, UniProt Q8IYL9)
Experiment: Human GPR65 cAMP HTRF antagonist assay
Type: cell-based
Text: In one preferred embodiment, the compound prevents the increase in cytoplasmic cAMP levels expected following GPR65 activation at acidic pH. This prevention of cAMP accumulation in turn prevents downstream signalling through ICER, as described above. The “Human GPR65 cyclic adenosine monophosphate (cAMP) Homogeneous Time Resolved Fluorescence (HTRF) antagonist assay”, or simply “cAMP assay”, as described in the accompanying examples, can be used to measure the potency of GPR65 modulators, which is expressed as the concentration of compound required to reduce the increase in cAMP concentration upon GPR65 activation by 50% (i.e. an IC50).
Human GPR65 Cyclic Adenosine Monophosphate (cAMP) Homogeneous Time Resolved Fluorescence (HTRF) Antagonist Assay Procedure
IC50 data was obtained by the following procedure:
1321N1 human astrocytoma cells stably expressing human recombinant GPR65 (1321N1-hrGPR65 cells, EuroscreenFast) were cultured according to the vendor's instructions. Compounds were tested for their ability to antagonise GPR65, through measuring the concentration of cytoplasmic cAMP following treatment of the cells at a pH of 7.2 to activate GPR65 signalling and addition of the compound to be tested. The extent to which the expected rise in cAMP concentration upon GPR65 activation was suppressed by the added compound is indicative of its potency. The assay was carried out according to EuroscreenFast assay Methodology as follows.
On the day of the assay, test compounds were added to 384-well, low volume, white microtiter plates by acoustic dispensing. KRH buffer (5 mM KCl, 1.25 mM MgSO4, 124 mM NaCl, 25 mM HEPES, 13.3 mM Glucose, 1.25 mM KH2PO4 and 1.45 mM CaCl2) was adjusted to pH 6.5, pH 7.6 and pH 8.4 by adding NaOH. 1321N1-hGPR65 cells were rapidly thawed and diluted in KRH, pH 7.6 prior to centrifugation at 300×g for 5 min and resuspension in assay buffer (KRH, pH 7.6, supplemented with 1 mM 3-isobutyl-1-methylxanthine (IBMX) and 200 μM ethylenediaminetetraacetic acid (EDTA)). Cells were added to assay plates at a density of 2,000 cells per well in a volume of 5 μl. Assay plates were briefly centrifuged at 100×g and then incubated at room temperature for 30 min. Cells were stimulated by the addition of 5 μL KRH, pH 6.5, to achieve an assay pH of 7.2, while control wells received 5 μl KRH, pH 8.4 to achieve an assay pH of 7.9. Assay plates were briefly centrifuged at 100×g and then incubated at room temperature for 30 min.
Accumulation of cAMP was detected by cAMP HTRF kit (Cisbio). d2-labeled cAMP and cryptate-labeled anti-cAMP antibody in Lysis and Detection Buffer (Cisbio) were added to assay plates, and the plates were incubated at room temperature for 1 h. HTRF measurements were performed using a Pherastar FSX instrument. Acceptor and donor emission signals were measured at 665 nm and 620 nm, respectively, and HTRF ratios were calculated as signal665 nm/signal620 nm×10^4. Data were normalised to high and low control values and fitted with 4-parameter logistic regression to determine hGPR65 IC50 values for the test compounds, which are shown in Table 1.

[1] = 1321N1-hrGPR65 cells, assay pH 7.2, suppression of cAMP rise, HTRF, read-out: hGPR65 IC50 (activity class)

Sequence of human recombinant GPR65 (Q8IYL9 whole entry): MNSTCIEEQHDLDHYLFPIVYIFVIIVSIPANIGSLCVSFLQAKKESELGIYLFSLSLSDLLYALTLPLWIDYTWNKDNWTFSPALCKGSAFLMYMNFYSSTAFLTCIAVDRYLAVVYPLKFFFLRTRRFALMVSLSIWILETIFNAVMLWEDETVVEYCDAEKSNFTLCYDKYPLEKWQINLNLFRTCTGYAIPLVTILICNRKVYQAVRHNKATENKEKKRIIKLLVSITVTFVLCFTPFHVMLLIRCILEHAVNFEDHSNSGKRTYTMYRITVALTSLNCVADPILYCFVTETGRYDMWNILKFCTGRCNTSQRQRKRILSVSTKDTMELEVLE

SMILES	pIC50 [1]	pIC50
O=C1NN=C2C(=C[C@H]3CC[C@@H]2N3C(=O)Nc2cc(Cl)c(-c3ccc4nonc4c3)cc2F)N1 [Compound 12, (6R,9S)-N-(4-(Benzo[c][1,2,5]oxadiazol-5-yl)-5-chloro-2-fluorophenyl)-3-oxo-3,4,6,7,8,9-hexahydro-2H-6,9-epiminocyclohepta[e][1,2,4]triazine-10-carboxamide]	5.30 to 6.30	–
O=C1NN=C2C(=C[C@@H]3CC[C@H]2N3C(=O)Nc2cc(Cl)c(-c3ccc(OCC(F)(F)F)nc3)cc2F)N1 [Compound 11, (6S,9R)-N-(5-Chloro-2-fluoro-4-(6-(2,2,2-trifluoroethoxy)pyridine-3-yl)phenyl)-3-oxo-3,4,6,7,8,9-hexahydro-2H-6,9-epiminocyclohepta[e][1,2,4]triazine-10-carboxamide]	–	> 6.30
O=C1NN=C2C(=CC3CCC2N3C(=O)Nc2cc(Cl)c(-c3ccc4nonc4c3)cc2F)N1 (racemic) [Compound 4, (±)-N-(4-(benzo[c][1,2,5]oxadiazol-5-yl)-5-chloro-2-fluorophenyl)-3-oxo-3,4,6,7,8,9-hexahydro-2H-6,9-epiminocyclohepta[e][1,2,4]triazine-10-carboxamide]	–	> 6.30
O=C1NN=C2C(=C[C@@H]3CC[C@H]2N3C(=O)Nc2cc(Cl)c(C(F)(F)F)cc2F)N1 [Compound 8, (6S,9R)-N-(5-Chloro-2-fluoro-4-(trifluoromethyl)phenyl)-3-oxo-3,4,6,7,8,9-hexahydro-2H-6,9-epiminocyclohepta[e][1,2,4]triazine-10-carboxamide]	–	> 6.30
O=C1NN=C2C(=CC3CCC2N3C(=O)Nc2cc(C(F)(F)F)on2)N1 (racemic) [Compound 5, (±)-3-Oxo-N-(5-(trifluoromethyl)isoxazol-3-yl)-3,4,6,7,8,9-hexahydro-2H-6,9-epiminocyclohepta[e][1,2,4]triazine-10-carboxamide]	5.30 to 6.30	–
CC(C)Oc1ccc(-c2cc(F)c(NC(=O)N3[C@@H]4C=C5NC(=O)NN=C5[C@H]3CC4)cc2Cl)cn1 [Compound 10, (6S,9R)-N-(5-Chloro-2-fluoro-4-(6-isopropoxypyridin-3-yl)phenyl)-3-oxo-3,4,6,7,8,9-hexahydro-2H-6,9-epiminocyclohepta[e][1,2,4]triazine-10-carboxamide]	–	> 6.30
O=C1NN=C2C(=C[C@H]3CC[C@@H]2N3C(=O)Nc2cc(Cl)c(C(F)(F)F)cc2F)N1 [Compound 9, (6R,9S)-N-(5-Chloro-2-fluoro-4-(trifluoromethyl)phenyl)-3-oxo-3,4,6,7,8,9-hexahydro-2H-6,9-epiminocyclohepta[e][1,2,4]triazine-10-carboxamide]	5.30 to 6.30	–
O=C(Nc1cc(Cl)c(C(F)(F)F)cc1F)N1[C@@H]2C=C3NC(=S)NN=C3[C@H]1CC2 [Compound 7, (6S,9R)-N-(5-Chloro-2-fluoro-4-(trifluoromethyl)phenyl)-3-thioxo-3,4,6,7,8,9-hexahydro-2H-6,9-epiminocyclohepta[e][1,2,4]triazine-10-carboxamide]	–	> 6.30
O=C1NN=C2C(=C[C@@H]3CC[C@H]2N3C(=O)Nc2cc(Cl)c(-c3ccc4nonc4c3)cc2F)N1 [Compound 13, (6S,9R)-N-(4-(Benzo[c][1,2,5]oxadiazol-5-yl)-5-chloro-2-fluorophenyl)-3-oxo-3,4,6,7,8,9-hexahydro-2H-6,9-epiminocyclohepta[e][1,2,4]triazine-10-carboxamide]	–	> 6.30
O=C1NN=C2C(=CC3CCC2N3C(=O)Nc2cc(Cl)c(C(F)(F)F)cc2F)N1 (racemic) [Compound 1, (±)-N-(5-Chloro-2-fluoro-4-(trifluoromethyl)phenyl)-3-oxo-3,4,6,7,8,9-hexahydro-2H-6,9-epiminocyclohepta[e][1,2,4]triazine-10-carboxamide]	–	> 6.30
CS(=O)(=O)c1nnc2c(n1)CC1CCC2N1C(=O)Nc1cc(Cl)c(C(F)(F)F)cc1F (racemic) [Compound 6, (±)-N-(5-Chloro-2-fluoro-4-(trifluoromethyl)phenyl)-3-(methylsulfonyl)-6,7,8,9-tetrahydro-5H-6,9-epiminocyclohepta[e][1,2,4]triazine-10-carboxamide]	5.30 to 6.30	–
O=C1NN=C2C(=CC3CCC2N3C(=O)Nc2cc(Cl)c(-c3cncc(F)c3)cc2F)N1 (racemic) [Compound 2, (±)-N-(5-Chloro-2-fluoro-4-(5-fluoropyridin-3-yl)phenyl)-3-oxo-3,4,6,7,8,9-hexahydro-2H-6,9-epiminocyclohepta[e][1,2,4]triazine-10-carboxamide]	–	> 6.30
O=C1NN=C2C(=CC3CCC2N3C(=O)Nc2cc(Cl)c(-c3ccc(F)nc3)cc2F)N1 (racemic) [Compound 3, (±)-N-(5-chloro-2-fluoro-4-(6-fluoropyridin-3-yl)phenyl)-3-oxo-3,4,6,7,8,9-hexahydro-2H-6,9-epiminocyclohepta[e][1,2,4]triazine-10-carboxamide]	–	> 6.30

Source: patent US20260070909A1, “GPR65 MODULATORS” (Pathios Therapeutics Limited, priority 2022, published 2026)
